One compound from PMC9516332 (Frontiers in Oncology, 2022) can be followed below.

Assay in all cases: Kinase panel profiling at 1 µmol/L (MSA or IMAP), percentage inhibition
Common to all, as to type: biochemical

Assay [1] has as its target T1, panel of 255 wild-type kinases (Homo sapiens, UniProt O43781).
T1 sequence (O43781 1-588): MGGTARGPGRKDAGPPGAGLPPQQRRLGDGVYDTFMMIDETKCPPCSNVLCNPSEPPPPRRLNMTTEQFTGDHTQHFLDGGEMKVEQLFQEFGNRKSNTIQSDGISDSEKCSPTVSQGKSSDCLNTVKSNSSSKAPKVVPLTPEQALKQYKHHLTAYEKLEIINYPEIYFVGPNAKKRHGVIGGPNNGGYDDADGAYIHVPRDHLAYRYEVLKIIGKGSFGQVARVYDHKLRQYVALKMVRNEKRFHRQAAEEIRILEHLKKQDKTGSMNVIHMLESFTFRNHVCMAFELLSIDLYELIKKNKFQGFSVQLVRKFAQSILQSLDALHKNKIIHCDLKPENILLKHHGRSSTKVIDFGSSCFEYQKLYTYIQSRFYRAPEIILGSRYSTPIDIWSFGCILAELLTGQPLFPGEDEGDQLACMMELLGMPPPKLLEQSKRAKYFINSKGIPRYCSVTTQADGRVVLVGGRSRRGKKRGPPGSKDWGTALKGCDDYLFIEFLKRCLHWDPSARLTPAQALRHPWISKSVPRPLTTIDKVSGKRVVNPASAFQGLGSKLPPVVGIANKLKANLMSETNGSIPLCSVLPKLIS
The following applies: kinase DYRK3; 1 µmol/L single concentration; read-out: %-inhibition at 1 µmol/L, DYRK3.

Assay [2] has as its target panel of 255 wild-type kinases (Homo sapiens, UniProt P00533). The following applies: kinase EGFR; 1 µmol/L single concentration; read-out: %-inhibition at 1 µmol/L, EGFR.
The target in assay [3] is panel of 255 wild-type kinases (Homo sapiens, UniProt P06239). The following applies: read-out: %-inhibition at 1 µmol/L, LCK.
Assay [4] concerns the target panel of 255 wild-type kinases (Homo sapiens, UniProt P08069). The following applies: kinase IGF1R; 1 µmol/L single concentration; read-out: %-inhibition at 1 µmol/L, IGF1R.
Assay [5] concerns the target panel of 255 wild-type kinases (Homo sapiens, UniProt P08631). The conditions noted are these: kinase HCK; 1 µmol/L single concentration; read-out: %-inhibition at 1 µmol/L, HCK.
For assay [6], the target named is panel of 255 wild-type kinases (Homo sapiens, UniProt P11309). The following applies: kinase PIM1; 1 µmol/L single concentration; read-out: %-inhibition at 1 µmol/L, PIM1.
The target of assay [7] is T2, panel of 255 wild-type kinases (Homo sapiens, UniProt P30530).
T2 sequence (P30530 26-894): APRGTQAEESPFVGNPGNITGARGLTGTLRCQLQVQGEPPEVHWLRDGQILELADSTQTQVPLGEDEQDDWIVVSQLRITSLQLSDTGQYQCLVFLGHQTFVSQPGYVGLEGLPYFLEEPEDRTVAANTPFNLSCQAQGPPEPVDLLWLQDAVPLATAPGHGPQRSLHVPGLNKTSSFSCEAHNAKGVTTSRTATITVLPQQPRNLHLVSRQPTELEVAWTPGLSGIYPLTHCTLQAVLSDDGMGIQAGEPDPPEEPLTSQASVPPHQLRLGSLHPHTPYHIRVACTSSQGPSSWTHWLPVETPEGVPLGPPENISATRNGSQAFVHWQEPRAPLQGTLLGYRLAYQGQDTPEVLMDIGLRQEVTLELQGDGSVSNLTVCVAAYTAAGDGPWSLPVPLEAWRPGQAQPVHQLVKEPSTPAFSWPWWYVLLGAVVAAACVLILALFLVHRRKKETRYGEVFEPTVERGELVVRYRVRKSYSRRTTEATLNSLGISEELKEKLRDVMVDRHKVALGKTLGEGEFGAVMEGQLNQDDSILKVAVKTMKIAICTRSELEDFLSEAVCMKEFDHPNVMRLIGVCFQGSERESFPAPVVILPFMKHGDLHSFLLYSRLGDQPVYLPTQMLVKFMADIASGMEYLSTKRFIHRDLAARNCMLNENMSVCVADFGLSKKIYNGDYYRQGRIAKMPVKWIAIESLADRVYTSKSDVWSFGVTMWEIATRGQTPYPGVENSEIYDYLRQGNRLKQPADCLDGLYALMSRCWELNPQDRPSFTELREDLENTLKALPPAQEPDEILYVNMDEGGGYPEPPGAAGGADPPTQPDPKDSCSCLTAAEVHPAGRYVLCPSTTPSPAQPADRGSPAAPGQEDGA
The following applies: AXL kinase assay; 1 µmol/L single concentration; read-out: %-inhibition AXL.

The target in assay [8] is panel of 255 wild-type kinases (Homo sapiens, UniProt P42685). The conditions noted are these: kinase FRK; 1 µmol/L single concentration; read-out: %-inhibition at 1 µmol/L, FRK.
Assay [9] has as its target panel of 255 wild-type kinases (Homo sapiens, UniProt P45984). The following applies: kinase JNK2; 1 µmol/L single concentration; read-out: %-inhibition at 1 µmol/L, JNK2.
In assay [10] the target is panel of 255 wild-type kinases (Homo sapiens, UniProt Q04759). The conditions noted are these: kinase PKCθ; 1 µmol/L single concentration; read-out: %-inhibition at 1 µmol/L, PKCθ.
Assay [11] deals with panel of 255 wild-type kinases (Homo sapiens, UniProt Q5VT25). The conditions noted are these: MRCKα; 1 µmol/L single concentration; read-out: %-inhibition, MRCKα.
Assay [12] concerns the target panel of 255 wild-type kinases (Homo sapiens, UniProt Q96SB4). The conditions noted are these: kinase SRPK1; 1 µmol/L single concentration; read-out: %-inhibition at 1 µmol/L, SRPK1.
Assay [13] deals with panel of 255 wild-type kinases (Homo sapiens, UniProt Q9BUB5). The following applies: MNK1; 1 µmol/L single concentration; read-out: %-inhibition, MNK1.
For assay [14], the target named is panel of 255 wild-type kinases (Homo sapiens, UniProt Q9H1R3). The following applies: kinase skMLCK; 1 µmol/L single concentration; read-out: %-inhibition at 1 µmol/L, skMLCK.
Assay [15] addresses panel of 255 wild-type kinases (Homo sapiens, UniProt Q9UQM7). The conditions noted are these: CaMK2α kinase assay; 1 µmol/L single concentration; read-out: %-inhibition CaMK2α.

Molecules are shown by their SMILES.

Take `Cc1cc(Nc2ncnc3ccc(NC4=NC(C)(C)CO4)cc23)ccc1Oc1ccn2ncnc2c1` [tucatinib]: the inhibition at 1 µM was 1.07% in [1]; 95% in [2]; 20% in [3]; 2.31% in assay [4]; -3% in assay [5]; -3.59% in [6]. The inhibition at 1 µM in assay [7] is 22%; in [8], -2.17%; in assay [9] it was 1.47%; in [10], 0.763%; in [11], 0.364%; in assay [12], -3%. Besides, the inhibition at 1 µM was -1.41% in assay [13], -1.5% in assay [14] and -3% in assay [15].
